“And” between values parts separate entries of the source, which are not always exact repeats. Identical values can stand only once. Like-named read-outs stand apart in the source and are kept apart here.
Assays:
CDK12–cyclin K and DDB1 = target: T1, CDK12–cyclin K and DDB1 (Homo sapiens, UniProt Q16531+Q9NYV4, K965R); test: TR-FRET ternary complex formation assay (compound titration); format: binding
T1 construct: His6–CDK12 (a.a. 713–1,052); full-length or beta-propeller B domain deletion (ΔBPB: a.a. 396–705 deleted) constructs of His6–DDB1ΔBPB, StrepII–Avi–DDB1, or His6–Spy–DDB1; made in house; host or cells: Trichoplusia ni High Five insect cells (baculovirus)
T1 sequence (Q9NYV4 713-1052 K965R): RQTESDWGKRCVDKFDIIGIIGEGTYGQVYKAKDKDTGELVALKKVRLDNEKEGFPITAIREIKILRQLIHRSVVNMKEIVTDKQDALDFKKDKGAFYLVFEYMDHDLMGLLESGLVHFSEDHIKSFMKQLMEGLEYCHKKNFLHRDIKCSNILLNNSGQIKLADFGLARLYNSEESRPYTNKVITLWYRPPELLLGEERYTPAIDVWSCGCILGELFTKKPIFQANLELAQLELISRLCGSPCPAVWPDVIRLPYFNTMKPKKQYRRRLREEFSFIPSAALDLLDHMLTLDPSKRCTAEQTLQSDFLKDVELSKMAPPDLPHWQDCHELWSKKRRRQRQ
T1 sequence (O75909 1-267 partner): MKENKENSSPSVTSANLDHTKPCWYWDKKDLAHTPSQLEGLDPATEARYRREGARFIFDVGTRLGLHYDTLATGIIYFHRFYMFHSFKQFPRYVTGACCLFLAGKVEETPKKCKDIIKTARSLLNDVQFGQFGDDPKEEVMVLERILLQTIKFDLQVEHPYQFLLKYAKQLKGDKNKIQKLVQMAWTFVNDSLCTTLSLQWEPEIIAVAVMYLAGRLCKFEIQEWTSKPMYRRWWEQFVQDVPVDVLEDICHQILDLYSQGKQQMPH
T1 sequence (Q16531 whole entry): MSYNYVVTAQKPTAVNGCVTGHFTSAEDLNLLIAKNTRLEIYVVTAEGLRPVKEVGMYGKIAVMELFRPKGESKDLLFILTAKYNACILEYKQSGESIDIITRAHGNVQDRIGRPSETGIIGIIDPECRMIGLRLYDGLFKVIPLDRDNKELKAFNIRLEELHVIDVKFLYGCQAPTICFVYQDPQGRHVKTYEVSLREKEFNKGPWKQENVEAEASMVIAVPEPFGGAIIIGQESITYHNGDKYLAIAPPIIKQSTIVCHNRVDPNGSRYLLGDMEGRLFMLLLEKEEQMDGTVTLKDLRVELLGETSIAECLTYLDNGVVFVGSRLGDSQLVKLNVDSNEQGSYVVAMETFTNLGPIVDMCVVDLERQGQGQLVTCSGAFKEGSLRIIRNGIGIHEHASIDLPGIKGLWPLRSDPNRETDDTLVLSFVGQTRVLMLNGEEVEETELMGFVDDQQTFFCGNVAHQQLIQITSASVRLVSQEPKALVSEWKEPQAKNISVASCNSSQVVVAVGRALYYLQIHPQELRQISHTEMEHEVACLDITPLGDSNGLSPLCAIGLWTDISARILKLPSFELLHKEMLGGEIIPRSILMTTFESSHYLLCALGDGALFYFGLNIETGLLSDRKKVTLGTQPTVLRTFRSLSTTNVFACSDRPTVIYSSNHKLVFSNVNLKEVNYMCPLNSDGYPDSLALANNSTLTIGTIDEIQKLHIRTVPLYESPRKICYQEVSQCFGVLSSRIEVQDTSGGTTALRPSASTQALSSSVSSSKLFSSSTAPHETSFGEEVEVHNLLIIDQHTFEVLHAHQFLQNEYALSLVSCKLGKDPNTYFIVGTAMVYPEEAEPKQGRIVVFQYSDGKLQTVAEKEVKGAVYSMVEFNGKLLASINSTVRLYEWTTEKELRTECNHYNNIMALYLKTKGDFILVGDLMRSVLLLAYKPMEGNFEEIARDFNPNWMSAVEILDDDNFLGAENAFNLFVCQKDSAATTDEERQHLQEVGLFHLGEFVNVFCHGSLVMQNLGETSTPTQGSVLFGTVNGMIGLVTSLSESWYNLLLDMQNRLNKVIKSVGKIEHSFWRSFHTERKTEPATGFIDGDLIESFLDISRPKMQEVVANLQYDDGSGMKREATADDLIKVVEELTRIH
Summary of the method: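 Delayed (70 μs) time-resolved read; FRET computed as 520 nm over 490 nm emission.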

CDK2–cyclin A = target: T2, CDK2–cyclin A (Homo sapiens, UniProt P24941); test: Lanthascreen kinase binding assay, CDK2; details: for Lanthascreen signal, sheet CDK2: raw replicates, experiment r1-r11
T2 construct: purchased Thermo Fisher
Description: (§1) Lanthascreen experiments were performed using commercially available reagents (Thermo Fisher) and according to the manufacturer’s instructions.

CDK9–cyclin T = target: T3, CDK9–cyclin T (Homo sapiens, UniProt P50750); test: Lanthascreen kinase binding assay, CDK9; details: for Lanthascreen TR-FRET signal (raw ratio), sheet CDK9: first titration set (r1), duplicates
T3 construct: purchased Thermo Fisher
T3 sequence (P50750 whole entry): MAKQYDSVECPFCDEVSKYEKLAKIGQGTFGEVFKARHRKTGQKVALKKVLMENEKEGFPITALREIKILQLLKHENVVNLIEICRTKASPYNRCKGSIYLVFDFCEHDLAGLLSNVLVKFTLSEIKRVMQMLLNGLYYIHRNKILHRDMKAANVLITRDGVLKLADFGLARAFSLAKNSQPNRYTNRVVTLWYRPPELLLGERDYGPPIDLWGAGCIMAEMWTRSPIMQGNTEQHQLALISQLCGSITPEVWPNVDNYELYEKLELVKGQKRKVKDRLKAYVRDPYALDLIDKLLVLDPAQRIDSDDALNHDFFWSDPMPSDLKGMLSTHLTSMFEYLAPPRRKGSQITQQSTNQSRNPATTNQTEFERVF
T3 sequence (O60563 whole entry partner): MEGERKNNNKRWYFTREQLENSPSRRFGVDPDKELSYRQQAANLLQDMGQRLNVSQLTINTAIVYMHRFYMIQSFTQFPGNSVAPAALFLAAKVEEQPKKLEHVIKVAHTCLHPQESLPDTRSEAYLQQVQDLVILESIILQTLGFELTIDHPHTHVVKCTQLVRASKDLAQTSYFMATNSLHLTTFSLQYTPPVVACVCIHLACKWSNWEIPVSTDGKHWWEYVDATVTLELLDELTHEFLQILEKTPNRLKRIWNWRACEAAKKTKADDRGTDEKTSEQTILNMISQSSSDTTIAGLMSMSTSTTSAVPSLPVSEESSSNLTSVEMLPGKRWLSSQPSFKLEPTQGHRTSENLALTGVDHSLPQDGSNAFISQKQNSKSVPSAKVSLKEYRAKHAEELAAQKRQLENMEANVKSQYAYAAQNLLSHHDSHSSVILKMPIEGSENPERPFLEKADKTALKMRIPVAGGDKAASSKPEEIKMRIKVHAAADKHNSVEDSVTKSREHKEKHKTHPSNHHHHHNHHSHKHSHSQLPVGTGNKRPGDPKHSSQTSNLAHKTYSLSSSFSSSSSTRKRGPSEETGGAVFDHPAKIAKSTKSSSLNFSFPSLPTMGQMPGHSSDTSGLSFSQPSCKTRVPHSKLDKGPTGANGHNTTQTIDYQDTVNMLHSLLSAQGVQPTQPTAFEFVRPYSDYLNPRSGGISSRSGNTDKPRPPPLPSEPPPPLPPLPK
Description: as §1

HEK293T cells = test: Drug sensitivity assay (CellTiter-Glo viability) with or without MLN4924 pretreatment; format: cell-based, human; details: Supplementary Table 2
Summary of the method: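 Viability of HEK293T–Cas9 cells was compared after 3-day drug treatment with or without 100 nM MLN4924 pretreatment (2 h, versus DMSO). Values are CellTiter-Glo signals relative to DMSO controls.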

CDK12–cyclin K = CDK12–cyclin K (Homo sapiens, UniProt Q9NYV4); test: Lanthascreen kinase binding assay, CDK12; details: series r1, duplicates
CDK12–cyclin K, sequence (Q9NYV4 713-1052): as the sequence (Q9NYV4 713-1052 K965R) above, with R253K counted along it
CDK12–cyclin K, sequence (O75909 1-267 partner limits assumed): as the sequence (O75909 1-267 partner) above
Description: as §1

[1] = system: cyclin K–eGFP degradation reporter; test: Cyclin K reporter stability analysis (dual-color cyclin K–eGFP reporter); format: cell-based, human; details: source data sheet correlations; read-out: DC50
Summary of the method: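 Readout was the eGFP-to-mCherry geometric-mean ratio by flow cytometry, normalized to three DMSO controls, after 5 h drug exposure. Cells used were HEK293T–Cas9 expressing the dual-colour cyclin K–eGFP degradation reporter.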

TR-FRET signal at compound concentration 0.468 nM (CDK12–cyclin K and DDB1; compound concentration 0.468 nM, raw replicate titration data): 0.2748 and 0.2878
TR-FRET signal at compound concentration 2.16 nM (CDK12–cyclin K and DDB1; compound concentration 2.16 nM, raw replicate titration data): 0.3281 and 0.3452
TR-FRET signal at compound concentration 3.6 nM (CDK12–cyclin K and DDB1; compound concentration 3.6 nM, raw replicate titration data): 0.4287 and 0.4479
TR-FRET signal at compound concentration 7.92001 nM (CDK12–cyclin K and DDB1; compound concentration 7.92001 nM, raw replicate titration data): 0.6146 and 0.6538
TR-FRET signal at compound concentration 15.84 nM (CDK12–cyclin K and DDB1; compound concentration 15.84 nM, raw replicate titration data): 0.9627 and 1.0618
TR-FRET signal at compound concentration 30.96 nM (CDK12–cyclin K and DDB1; compound concentration 30.96 nM, raw replicate titration data): 1.485 and 1.709
TR-FRET signal at compound concentration 62.6401 nM (CDK12–cyclin K and DDB1; compound concentration 62.6401 nM, raw replicate titration data): 2.204 and 2.463
TR-FRET signal at compound concentration 125.28 nM (CDK12–cyclin K and DDB1; compound concentration 125.28 nM, raw replicate titration data): 2.739 and 3.004
TR-FRET signal at compound concentration 244.8 nM (CDK12–cyclin K and DDB1; compound concentration 244.8 nM, raw replicate titration data): 3.0364 and 3.323
TR-FRET signal at compound concentration 993.601 nM (CDK12–cyclin K and DDB1; compound concentration 993.601 nM, raw replicate titration data): 3.365 and 3.564
TR-FRET signal at compound concentration 2001.6 nM (CDK12–cyclin K and DDB1; compound concentration 2001.6 nM, raw replicate titration data): 3.296 and 3.552
EC50 (CDK12–cyclin K and DDB1; in vitro complex formation, 50 nM CDK12–cyclin K, 100 nM DDB1, text and figures, read-out: TR-FRET EC50): 41 ± 2 nM
EC50 (CDK12–cyclin K and DDB1; sheet MOESM7, read-out: log TR-FRET EC50 (converted)): 40.9 nM
EC50 (CDK12–cyclin K and DDB1; source data sheet correlations, read-out: TR-FRET EC50): 40.9 nM
Lanthascreen signal, sheet CDK2 (CDK2–cyclin A; Compound 1.02544 nM): 0.01032 and 0.009036
Lanthascreen signal, sheet CDK2 (CDK2–cyclin A; Compound 3.15521 nM): 0.009561 and 0.01039
Lanthascreen signal, sheet CDK2 (CDK2–cyclin A; Compound 9.46563 nM): 0.01132 and 0.01064
Lanthascreen signal, sheet CDK2 (CDK2–cyclin A; Compound 31.5521 nM): 0.009578 and 0.01231
Lanthascreen signal, sheet CDK2 (CDK2–cyclin A; Compound 99.3891 nM): 0.0112 and 0.01036
Lanthascreen signal, sheet CDK2 (CDK2–cyclin A; Compound 315.521 nM): 0.00859 and 0.007854
Lanthascreen signal, sheet CDK2 (CDK2–cyclin A; Compound 3155.21 nM): 0.006995 and 0.007302
Lanthascreen signal, sheet CDK2 (CDK2–cyclin A; Compound 10002 nM): 0.004999 and 0.005409
IC50 (CDK2–cyclin A; Supplementary Table 2, read-out: Lanthascreen IC50 [nM] CDK2): 4960 nM
IC50 (CDK9–cyclin T; Lanthascreen, average, Extended Data Fig. 8, read-out: CDK9 IC50): > 10000 nM
IC50 (CDK9–cyclin T; Supplementary Table 2, read-out: Lanthascreen IC50 [nM] CDK9): > 10000 nM
Lanthascreen TR-FRET signal (raw ratio), sheet CDK9 (CDK9–cyclin T; compound 1.02544 nM): 0.01262 and 0.01798
Lanthascreen TR-FRET signal (raw ratio), sheet CDK9 (CDK9–cyclin T; compound 3.15521 nM): 0.01403 and 0.01513
Lanthascreen TR-FRET signal (raw ratio), sheet CDK9 (CDK9–cyclin T; compound 9.46563 nM): 0.01561 and 0.01591
Lanthascreen TR-FRET signal (raw ratio), sheet CDK9 (CDK9–cyclin T; compound 31.5521 nM): 0.01447 and 0.01334
Lanthascreen TR-FRET signal (raw ratio), sheet CDK9 (CDK9–cyclin T; compound 99.3891 nM): 0.01493 and 0.01478
Lanthascreen TR-FRET signal (raw ratio), sheet CDK9 (CDK9–cyclin T; compound 315.521 nM): 0.01351 and 0.01148
Lanthascreen TR-FRET signal (raw ratio), sheet CDK9 (CDK9–cyclin T; compound 3155.21 nM): 0.008801 and 0.0091
Lanthascreen TR-FRET signal (raw ratio), sheet CDK9 (CDK9–cyclin T; compound 10002 nM): 0.004226 and 0.004622
Lanthascreen raw signal, sheet CDK12 (CDK12–cyclin K; compound 1.02544 nM): 0.01144 and 0.008554
Lanthascreen raw signal, sheet CDK12 (CDK12–cyclin K; compound 3.15521 nM): 0.008537 and 0.009228
Lanthascreen raw signal, sheet CDK12 (CDK12–cyclin K; compound 9.46563 nM): 0.008646 and 0.00887
Lanthascreen raw signal, sheet CDK12 (CDK12–cyclin K; compound 31.5521 nM): 0.00802 and 0.006596
Lanthascreen raw signal, sheet CDK12 (CDK12–cyclin K; compound 99.3891 nM): 0.007448 and 0.007338
Lanthascreen raw signal, sheet CDK12 (CDK12–cyclin K; compound 315.521 nM): 0.006013 and 0.008259
Lanthascreen raw signal, sheet CDK12 (CDK12–cyclin K; compound 3155.21 nM): 0.007185 and 0.006229
Lanthascreen raw signal, sheet CDK12 (CDK12–cyclin K; compound 10002 nM): 0.005174 and 0.004623
DC50 [1]: 62 nM
Compound: CC[C@H](CO)Nc1nc(NCc2nc3c(F)c(F)ccc3[nH]2)c2ncn(C(C)C)c2n1 [DS64]
EC50 (HEK293T cells; Homo sapiens, HEK-293T, HEK293T viability, 72 h, compound alone, read-out: Cellular assays EC50): 527 nM
Toxicity rescue (HEK293T cells; MLN4924-mediated cytotoxicity rescue, 10 µM used where n.d.): 971%

Reference: publication PMC10746543, “Design principles for cyclin K molecular glue degraders” (Nature Chemical Biology, 2023)
